# Where a SMILES comes first, the peptide text is derived from it. [ ]: non-standard residue; d: D form. The star is where a group is joined. PhAc = O=C(Cc1ccccc1)*
# Tests used:
# [1] = target: T1, isopenicillin N synthetase (cyclase) (Hapsidospora chrysogena, UniProt P05189); assay: Cyclization of peptide substrates by A. chrysogenum cyclase, penicillin formed measured by bioassay; format: biochemical, Acremonium chrysogenum
# T1 construct: The mycelium was disrupted by sonification for 2 minutes; endogenous in cells
# T1 sequence (P05189 1-338): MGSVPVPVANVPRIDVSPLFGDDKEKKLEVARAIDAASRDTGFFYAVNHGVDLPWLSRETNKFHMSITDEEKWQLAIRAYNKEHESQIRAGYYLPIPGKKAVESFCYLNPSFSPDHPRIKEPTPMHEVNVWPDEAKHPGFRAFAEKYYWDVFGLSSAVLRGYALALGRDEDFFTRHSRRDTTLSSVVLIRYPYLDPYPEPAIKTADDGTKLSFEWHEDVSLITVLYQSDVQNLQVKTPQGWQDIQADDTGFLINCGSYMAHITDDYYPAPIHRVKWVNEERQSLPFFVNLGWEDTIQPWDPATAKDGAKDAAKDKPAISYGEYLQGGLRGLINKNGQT
# Description: Example 2 was repeated but using isopenicillin N synthetase extracted from a high producing strain of Acremonium chrysogenum (A. chrysogenum C-10 available from A. L. Demain).
# Cells containing high isopenicillin N synthetase activity were obtained in a two stage process as described in J. Antibiot. 144:869-876. A. chrysogenum cultures were developed in seed medium for 4 days and these used to innoculate 60ml of chemically defined cephalosporin production medium, (CP medium). Cell free extracts were obtained as described by Ramos et al in Antimicrob. Agents Chemother. 27(3):380-387. Mycelium of A. chrysogenum was collected at 64 hours of cultivation in CP medium and resuspended in 30mM Tris-HCl buffer pH 8.0 containing 0.1mM dithiothreitol (DTT). The mycelium was disrupted by sonification for 2 minutes. The extract was centrifuged at 100,000 x g for 1 hour at 4°C in a Beckman L8-70 ultracentrifuge and the resulting crude extract was stored at -20 C. Isopenicillin N synthetase was purified as previously described in Antimicrob. Agents Chemother. 27(3):380-387.
# Bioassay of the isopenicillin N and benzylpenicillin formed by the A. chrysogenum cyclase was performed in a similar way to the method described in Example 3 for assaying the penicillins produced by the cyclase extracted from P. chrysogenum.
# Example 4 was repeated but using POCV as substrate in place of PCV. POCV was prepared as described in Example 5. The cyclase was extracted from A. chrysogenum AS-C-80 and incubated in the reaction mixture described in Example 5, with the exception that the pH of the Tris buffer was 7.8.
# [2] = target: T2, isopenicillin N synthetase (cyclase) (Streptomyces clavuligerus, UniProt P10621); assay: Cyclization of peptide substrates by S. clavuligerus cyclase, penicillin formed measured by bioassay against M. luteus; format: biochemical; settings: for kinetics of cyclization with the cyclase (Fig 1): formation of penicillin G from PCV, synthesis of isopenicillin N from ACV
# T2 construct: The broken cell suspension was ultra-centrifuged at 100,000 x g; endogenous in cells; host or cells: Streptomyces clavuligerus ATCC 27064
# T2 sequence (P10621 1-329): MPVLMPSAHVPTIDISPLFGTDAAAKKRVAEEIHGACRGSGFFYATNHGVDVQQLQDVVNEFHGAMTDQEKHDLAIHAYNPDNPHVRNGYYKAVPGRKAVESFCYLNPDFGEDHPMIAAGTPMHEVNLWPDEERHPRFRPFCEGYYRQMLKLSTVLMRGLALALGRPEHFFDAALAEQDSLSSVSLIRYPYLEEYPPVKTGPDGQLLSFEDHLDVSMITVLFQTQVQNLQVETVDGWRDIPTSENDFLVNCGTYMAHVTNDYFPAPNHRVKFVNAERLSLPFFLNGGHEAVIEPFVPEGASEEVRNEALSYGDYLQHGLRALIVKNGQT
# Description: S. clavuligerus ATTC 27064 was maintained and grown as described by O'Sullivan et al. in Biochem. J. 179:47-52, 1979. 250 ml of culture were harvested by centrifugation at 10,000 x g for 5 minutes, washed four times by resuspension in sterile saline solution and centrifuged as before. The precipitated cells, resuspended in 25 ml of […] Tris-HCl buffer pH 7.5 containing 0.1mM DTT (TD buffer), were sonicated as described in J. Antibiot. 35:483-490, 1982, using a Branson Sonifier Cell Disruptor (B-12). The broken cell suspension was ultra-centrifuged at 100,000 x g (Beckman L5-65B) for 90 minutes, treated with 0.2 (w/v) protamine sulphate and the clear extract precipitated with ammonium sulphate (30-80% saturation, for example 50-80% saturation). The resulting precipitate was resuspended in 3 ml of TD buffer and applied to a Sephadex (Trade Mark) G-25, PD-10 column (Pharmacia). Aliquots of 1 ml were collected and assayed for isopenicillin N synthetase (cyclase) activity. Fractions 4 and 5, containing maximal activity, were mixed and employed for the reaction. The cyclase extracts were stored frozen at -20 C. Protein was measured by the method of Lowry et al described in J. Biol. Chem. 193:265-273, 1951.
# Cyclization activity of the cyclase on ACV or PCV was assayed by a slightly modified version of the method described by Jensen et al. in J.Antibiot, 35:483-490, 1982 and in Antibiotics and Other Secondary Metabolites pages 141-164, Academic Press. The reaction mixture contained 30mM Tris-HCl buffer pH 7.5; 0.5 mM FeSO₄; 1mM bis-ACV or 3mM bis-PCV; 4mM DTT; 3 mM Na ascorbate and enzyme (10mg of protein) in a final reaction volume of 0.5 ml. The reaction mixture was incubated at 25°C for 90 min and stopped by adding 0.5ml of methanol.
# The formation of isopenicillin N and benzylpenicillin was measured by bioassay against M. luteus ATCC 9341 following the hole plate method described in Biochem. J. 103:877-890, 1967. Penicillin N and benzylpenicillin were used as standards. One unit of antibiotic (penicillin N or benzylpenicillin) gave a zone of inhibition equivalent to 1µg or 1.58 µg of penicillin N or benzylpenicillin respectively with M. luteus luteus ATCC 9341 as test organism.
# [3] = target: T3, isopenicillin N synthetase (cyclase) (Penicillium chrysogenum, UniProt P08703); assay: Cyclization of peptide substrates by P. chrysogenum cyclase, penicillin formed measured by bioassay; format: biochemical
# T3 construct: The mycelium was disrupted by sonification for 5 minutes; endogenous in cells
# T3 sequence (P08703 1-331): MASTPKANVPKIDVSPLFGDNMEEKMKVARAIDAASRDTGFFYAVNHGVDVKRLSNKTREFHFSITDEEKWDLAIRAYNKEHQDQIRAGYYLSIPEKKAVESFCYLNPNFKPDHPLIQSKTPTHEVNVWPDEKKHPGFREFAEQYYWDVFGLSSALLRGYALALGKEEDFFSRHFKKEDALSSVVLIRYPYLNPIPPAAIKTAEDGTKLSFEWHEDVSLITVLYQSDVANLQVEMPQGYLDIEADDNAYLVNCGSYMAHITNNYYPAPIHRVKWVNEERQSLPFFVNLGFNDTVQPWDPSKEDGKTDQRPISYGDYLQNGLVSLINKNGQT
# Description: Example 2 was repeated but using isopenicillin N synthetase extracted from a high producing strain of Penicillium chrysogenum (Penicillium chrysogenum AS-P-78, Luengo et al J. Antibiot. 144:869-876). Cells containing high isopenicillin N synthetase activity were obtained in a two stage process as described in J. Antibiot. 144:869-876. Cell free extracts were obtained as described by Ramos et al in Antimicrob. Agents Chemother. 27(3):380-387. Mycelium of P. chrysogenum was collected at 24 hours of cultivation in cephalosporin production medium (CP medium) and resuspended in 30mM Tris-HCl buffer pH 8.0 containing 0.1mM dithiothreitol (DTT). The mycelium was disrupted by sonification for 5 minutes. The extract was centrifuged at 100,000 x g for 1 hour at 4°C in a Beckman L8-70 ultracentrifuge and the resulting crude extract was stored at -20°C. Isopenicillin N synthetase were purified as previously described in Antimicrob. Agents Chemother. 27(3):380-387. The isopenicillin N and benzylpenicillin formed by cyclization of 0.2mM ACV or 2mM PCV using […] was assayed by the following bioassay. After the reactions were stopped with methanol, triplicate 50 µl samples were applied to wells 7mm in diameter in plates containing 15ml of Tryptic Soy Agar (TSA) medium (Difco) innoculated with Micrococcus luteus (0.5 ml of a culture having an O.D. of 1.0 at 600nm). Control samples of pure isopenicillin N or benzylpenicillin were treated with methanol in a similar way to the reaction samples. The samples in the assay plates were kept at 4°C for 3 hours to allow diffusion and then incubated at 30°C for 12 hours. The cell free extracts of P. chrysogenum AS-P-78 (5-20 mg of protein/ml) were incubated at 25°C for 30 minutes in a reaction mixture containing 30mM Tris-HCl buffer pH 8.1, 0.1mM FeSO₄, 6mM DTT, 3mM Na ascorbate and 3mM POCV. The pH was adjusted to 2.0.
# [4] = system: isopenicillin N synthetase, also called cyclase; settings: added to the reaction mixture; cited from earlier work
smiles,measurement,setting,value
"CC(C)[C@@H](NC(=O)[C@H](CS)NC(=O)CCC[C@H](N)C(=O)O)C(=O)O [ACV, δ-(L-α-aminoadipyl)-L-cysteinyl-D-valine, reference compound]",inactivation of the reaction product by penicillinase,[1],completely inactivated
same,kinetics of cyclization with the cyclase (Fig 1),[2],much faster
same,sensitivity of the cyclization product to penicillin acylase,[2]; isopenicillin N obtained from the cyclization of ACV,not sensitive to penicillin acylase
same,Isopenicillin N¹ or Benzylpenicillin² (U/ml),"[2]; substrate ACV (1mM bis-ACV), control reaction mixture, 25°C, 90 min, isopenicillin N measured using penicillin N as standard",40 U/ml
same,Isopenicillin N¹ or Benzylpenicillin² (U/ml),"[2]; substrate ACV, + Penicillin acylase (2 I.U, 10 min.), isopenicillin N measured using penicillin N as standard",38 U/ml
same,Isopenicillin N¹ or Benzylpenicillin² (U/ml),"[2]; substrate ACV, + β-lactamase, isopenicillin N measured using penicillin N as standard",0 U/ml
same,inactivation of the reaction product by penicillin acylase,[3],did not occur
same,inactivation of the reaction product by penicillinase,[3],completely inactivated
"CC(C)[C@@H](NC(=O)[C@H](CS)NC(=O)Cc1ccccc1)C(=O)O [PCV, phenylacetyl-L-cysteinyl-D-valine] (PhAc-Cys-[dV]-OH)",inactivation of the reaction product by penicillin acylase,[1],inactivated by penicillin acylase
same,inactivation of the reaction product by penicillinase,[1],completely inactivated
same,sensitivity of the cyclization product to β-lactamase I from Bacillus careus,[2],sensitive to β-lactamase I
same,Benzylpenicillin (U/ml),[2]; complete reaction mixture with PCV as substrate,0.15 U/ml
same,kinetics of cyclization with the cyclase (Fig 1),[2],slow time dependent course
same,activity of the cyclization product against M. luteus ATTC 9341,[2]; hole plate bioassay,active against M. luteus ATTC 9341
same,loss of antibacterial activity of the cyclization product,[2]; incubated with 2 I.U. of penicillin acylase at 30°C for 10 minutes,over 90 per cent
same,Isopenicillin N¹ or Benzylpenicillin² (U/ml),"[2]; substrate PCV (3mM bis-PCV), control reaction mixture, 25°C, 90 min, benzylpenicillin as standard",0.15 U/ml
same,Isopenicillin N¹ or Benzylpenicillin² (U/ml),"[2]; substrate PCV, + Penicillin acylase (2 I.U, 10 min.), benzylpenicillin as standard",0.01 U/ml
same,Isopenicillin N¹ or Benzylpenicillin² (U/ml),"[2]; substrate PCV, + β-lactamase, benzylpenicillin as standard",0.00 U/ml
same,inactivation of the reaction product by penicillin acylase,[3],inactivated by penicillin acylase
same,inactivation of the reaction product by penicillinase,[3],completely inactivated
"CC(C)[C@@H](NC(=O)[C@H](CS)NC(=O)COc1ccccc1)C(=O)O [POCV, phenoxyacetyl-L-cysteinyl-D-valine]",Penicillin V (U/ml),"[1]; complete reaction mixture, 3mM POCV, Tris buffer pH 7.8, cyclase from A. chrysogenum AS-C-80",0.25 U/ml
same,Penicillin V (U/ml),"[3]; complete reaction mixture, 3mM POCV, Tris-HCl buffer pH 8.1, 25°C, 30 minutes, P. chrysogenum AS-P-78 cell free extract",0.18 U/ml
"N[C@@H](CCC(=O)N[C@@H](CS)C(=O)NCC(=O)O)C(=O)O [glutathione, γ-glutamyl-cysteinyl-glycine]",effect on ACV cyclization,[4],inhibited

# — patent EP0209363B1, “Heteropeptides, intermediates in the biosynthesis of penicillins” (Antibioticos, S.A., priority 1985, dated 1987)
